Results from ChEMBL document CHEMBL1156953, “Novel pyrrolyl 2-aminopyridines as potent and selective human beta-secretase (BACE1) inhibitors” (Bioorg Med Chem Lett, 2010).

Assay: Dissociation constant, pKa of the compound
Format: physicochemical

pKa, 6.86:
N#CCCCOc1ccc(-c2ccc(-c3ccccc3Cl)n2Cc2cccc(N)n2)cc1
CCCCCOc1ccc(-c2ccc(-c3ccccc3Cl)n2Cc2ccc(NCCO)c(N)n2)cc1
CCCCCOc1ccc(-c2ccc(-c3ccccc3Cl)n2Cc2ccc(NCCCO)c(N)n2)cc1
CCCOc1ccc(-c2ccc(-c3ccccc3Cl)n2Cc2cccc(N)n2)cc1
CCCCOc1ccc(-c2ccc(-c3ccccc3Cl)n2Cc2cccc(N)n2)cc1
CCNC(=O)c1ccc(-c2ccc(-c3ccccc3)n2Cc2cccc(N)n2)cc1
CCCNC(=O)c1ccc(-c2ccc(-c3ccccc3)n2Cc2cccc(N)n2)cc1
CCCCNC(=O)c1ccc(-c2ccc(-c3ccccc3)n2Cc2cccc(N)n2)cc1
Nc1nc(Cn2c(-c3ccc(Oc4cncnc4)cc3)ccc2-c2ccccc2Cl)ccc1OCCO
Nc1nc(Cn2c(-c3ccc(Oc4cncnc4)cc3)ccc2-c2ccccc2Cl)ccc1NCCO
Nc1cccc(Cn2c(-c3ccc(Oc4ccncc4)cc3)ccc2-c2ccccc2Cl)n1
Nc1cccc(Cn2c(-c3ccc(Oc4cccnc4)cc3)ccc2-c2ccccc2Cl)n1
Nc1cccc(Cn2c(-c3ccc(Oc4ccccc4)cc3)ccc2-c2ccccc2Cl)n1
Nc1cccc(Cn2c(-c3ccc(Oc4ccccn4)cc3)ccc2-c2ccccc2Cl)n1
Nc1cccc(Cn2c(-c3ccc(Oc4cncnc4)cc3)ccc2-c2ccccc2Cl)n1
Nc1cccc(Cn2c(-c3ccc(Oc4cnccn4)cc3)ccc2-c2ccccc2Cl)n1
CCCCCCOc1ccc(-c2ccc(-c3ccccc3Cl)n2Cc2cccc(N)n2)cc1
C=CCNC(=O)c1ccc(-c2ccc(-c3ccccc3)n2Cc2cccc(N)n2)cc1
CC(C)NC(=O)c1ccc(-c2ccc(-c3ccccc3)n2Cc2cccc(N)n2)cc1
Nc1cccc(Cn2c(-c3ccccc3)ccc2-c2ccccc2)n1
Nc1cccc(Cn2c(-c3ccc(Oc4cccnn4)cc3)ccc2-c2ccccc2Cl)n1
Nc1cccc(Cn2c(-c3ccc(Oc4cccs4)cc3)ccc2-c2ccccc2Cl)n1
Nc1cccc(Cn2c(-c3ccccc3)ccc2-c2ccc(C(=O)NC3CC3)cc2)n1
Nc1cccc(Cn2c(-c3ccccc3)ccc2-c2ccc(C(=O)NC3CCC3)cc2)n1
COc1ccc(-c2ccc(-c3ccccc3Cl)n2Cc2cccc(N)n2)cc1
CCCCCOc1ccc(-c2ccc(-c3ccccc3Cl)n2Cc2cccc(N)n2)cc1
Nc1cccc(Cn2c(-c3ccc(Nc4cncnc4)cc3)ccc2-c2ccccc2Cl)n1
CCCCCOc1ccc(-c2ccc(-c3ccccc3Cl)n2Cc2ccc(OCCO)c(N)n2)cc1
CCCCCOc1ccc(-c2ccc(-c3ccccc3Cl)n2Cc2ccc(OCCCO)c(N)n2)cc1
